Where no end group is shown, it is not given here. [ ]: non-standard residue; d: D form.
System: human Peyer's patch tissue sections
Assay: Biotinylated peptide binding to human Peyer's patch tissue sections (streptavidin-HRP/DAB staining)
Conditions: biotinylated peptide at 50 μg/ml
Method: Three synthetic peptides (SEQ ID NO:8, 25 and 14) derived from isolated clones were biotinylated and tested for binding to human Peyer's patch tissue sections. In addition, a known negative binding peptide was included as a negative control. Paraffin sections of human Peyer's patch were deparaffinized and […]. The sections were rinsed in PBS. The antigenic determinants on the tissue were unmasked by microwaving in 2.1 g/L acetic acid for 5 minutes and allowed to cool at room temperature for 20 minutes while covered in plastic wrap. After 20 minutes, the sections were washed in PBS and then blocked in endogenous peroxidase in 1% hydrogen peroxide in methanol for 10 minutes. The rinse was repeated and the sections were blocked with 2% BSA in PBS for 20 minutes at room temperature. The sections were incubated with peptide at 50 μg/ml in […] in PBS for 1 hour at room temperature. Control tissue was treated with BSA alone. The sections were rinsed with 0.05% Tween in PBS. Streptavidin-HRP at 1/500 in 2% BSA was added for 30-60 minutes at room temperature. Again, the sections were rinsed with PBS/Tween. DAB substrate was added for up to 5 minutes, and the reaction was stopped by immersing the slides in water. The sections were counterstained using Haematoxlin for 50 seconds and then rinsed in water. The slides were differentiated in 1% acid alcohol for 5-10 seconds and then rinsed in water. The slides were mounted using aqueous mounting medium and a cover slip.

| Substance | staining localisation |
| --- | --- |
| LETTCASLCYPS (polypeptide ligand) [SEQ ID NO:8] | positive staining on the apical side of human enterocytes |
| VPPHPMTYSCQY (polypeptide ligand) [SEQ ID NO:25] | positive staining on the apical side of human enterocytes |

Same assay, conditions: biotinylated peptide at 50 μg/ml, 1 hour

| Substance | binding to human Peyer's patch |
| --- | --- |
| LETTCASLCYPS (polypeptide ligand) [SEQ ID NO:8] | Positive binding |
| NTRIPEPIRFYM (polypeptide ligand) [SEQ ID NO:14] | negative for binding |
| VPPHPMTYSCQY (polypeptide ligand) [SEQ ID NO:25] | Positive binding |

System: Caco-2 homogenates
Assay: Peptide coated particles ELISA-based binding to Caco-2 homogenates
Design: species or system human
Conditions: peptide adsorbed to polystyrene particles
Method: Several phage-derived peptides (SEQ ID NOs: 25, 31, 32, 33, and 40) were adsorbed to streptavidin particles (0.289 μm). Peptide coated particles were tested in an ELISA-based assay for binding to Caco-2 homogenates. […] In addition, when one double-mutant peptide ligand (SEQ ID NO:33), is adsorbed to polystyrene particles binding that is approximately 60% of that of the parent peptide is observed (See FIGS. 19A-19B).

| Substance | binding relative to that of the parent peptide |
| --- | --- |
| LETTAASLAYPS (polypeptide ligand) [SEQ ID NO:33] | approximately 60% |

Same assay, conditions: peptide adsorbed to streptavidin particles (0.289 μm)

| Substance | binding of peptide coated particles |
| --- | --- |
| LETTAASLAYPS (polypeptide ligand) [SEQ ID NO:33] | Binding was retained |
| LETTAASLCYPS [SEQ ID NO:31] | Binding was retained |
| LETTCASLAYPS [SEQ ID NO:32] | Binding was retained |
| VPPHPMTYSCQY (polypeptide ligand) [SEQ ID NO:25] | Binding was retained |

System: rat intestinal tissue homogenates
Assay: Synthetic peptide ELISA-based binding to rat intestinal tissue homogenates
Conditions: biotin-tagged peptides; Example 5
Method: The rat tissue homogenates were prepared by harvesting rat GI and Peyer's patch and storing them on ice until needed, or 1-2 hours. The tissue was then put into homogenization buffer (250 mM Sucrose, 12 mM Tris, 16 mM EDTA) with protease inhibitor cocktail. A hand-held homogenizer was used to break up the tissue for 3-4 minutes. The contents of the homogenizer were then transferred to microfuge tubes and spun at 1500 rpm for 1 minute. The supernatant was taken off and measured for protein content using the Bio-Rad Assay. Specificity studies were then run to allow differentiation between Peyer's patch specific and non-specific binding properties. The 55 high-binding clones were assayed for binding to rat small intestinal homogenates (i.e., homogenate membrane fractions) with and without Peyer's Patch tissue (i.e., tissue homogenate membrane fractions) present. (See FIGS. 6 and 7). The negative control was M13 mp18 with no peptide insert.
(§1) Peptide sequences (SEQ ID NOs: 3, 4, 5, 7, 8, 9, 10, 11, 14, 15, 16, 17, 19, 20, 26, 28, 29, 30) were synthesized with biotin tags at the amino terminal for all peptides and additionally at the carboxyl terminal for SEQ ID NOs:8 and 14. Binding of these peptides to Caco-2 homogenates and/or to rat intestinal tissue homogenates was tested in an ELISA-based assay with streptavidin-peroxidase detection. […] (See FIGS. 13A-13N).

| Substance | peptide binding |
| --- | --- |
| DYDSLSWRSTLH (polypeptide ligand) [SEQ ID NO:3] | High binding |
| LETTCASLCYPS (polypeptide ligand) [SEQ ID NO:8] | High binding |
| VCSNMYFSCRLS (polypeptide ligand) [SEQ ID NO:24] | High binding |
| VPPHPMTYSCQY (polypeptide ligand) [SEQ ID NO:25] | High binding |

System: intestinal epithelial tissue
Assay: Cysteine binding studies: co-incubation with free L-cysteine
Conditions: L-cysteine 100 mM to 0.003 mM; peptide 6.25-25 μg/ml
Method: FIG. 16A is a graph of the binding of SEQ ID NO:8 at a concentration of 25 μg/ml to intestinal epithelial tissue in the presence of varying concentrations of free L-cysteine as a function of absorbance at 650 nm.
Peptide SEQ ID NO:8, at a concentration of 6.25 μg/ml, 12.5 μg/ml and 25 μg/ml, was co-incubated with L-cysteine over the concentration range of 100 mM to 0.003 mM. Peptide SEQ ID NO:25, at a concentration of 6.25 μg/ml was co-incubated with L-cysteine over the concentration range of 100 mM to 0.003 mM.

| Substance | effect of free L-cysteine on peptide binding |
| --- | --- |
| LETTCASLCYPS (polypeptide ligand) [SEQ ID NO:8] | prevented binding |
| VPPHPMTYSCQY (polypeptide ligand) [SEQ ID NO:25] | prevented binding |

System: rat tissue from different organs, namely liver, lung, mesenteric lymph nodes, spleen and kidney
Assay: Peptide binding to rat tissue from different organs
Conditions: not given
Method: (§2) Peptide sequences (SEQ ID NOs:3, 7, 8, 9 and 14) were synthesized with biotin tags at the amino terminal for all peptides and additionally at the carboxyl terminal for SEQ ID NOs:8 and 14. Binding of these peptides to intestinal tissue of different species namely dog, mouse, pig, and rat was performed. […] (See FIGS. 14A-14H). Binding of peptides (SEQ ID NOs:8 and 14) to rat tissue from different organs, namely liver, lung, mesenteric lymph nodes, spleen and kidney, was performed. […] (See FIGS. 15A-15E).

| Substance | differences in binding profiles to tissues of different organs |
| --- | --- |
| LETTCASLCYPS (polypeptide ligand) [SEQ ID NO:8] | No major differences |
| NTRIPEPIRFYM (polypeptide ligand) [SEQ ID NO:14] | No major differences |

System: Caco-2 homogenates
Assay: Synthetic peptide ELISA-based binding to Caco-2 homogenates (streptavidin-peroxidase detection)
Design: species or system human
Conditions: not given
Method: In order to prepare the Caco-2 cell membrane and cytosolic fractions, confluent Caco-2 cell monolayers (grown in 75 cm^2 flasks for up to 1 week at 37° C. and 5% CO2) were washed twice in Dulbecco's PBS (DPBS). The cell monolayers were then treated with 10 mM EDTA-DPBS for 5-10 minutes at 37° C. and the cells were harvested by centrifugation at 1000 rpm for 5 minutes. The cells were then washed 3×in DPBS. The cell pellet was resuspended in 3 volumes of ice-cold HED buffer (20 mM HEPES (pH 7.67), 1 mM EGTA, 0,5 mM dithiothreitol, 1 mM phenylmethylsuphonyl fluoride (PMSF)) and the cells were allowed to swell for 5 minutes on ice. The cells were then homogenized for 30 seconds. The cell homogenates were then centrifuged in hard walled tubes at 40,000 rpm for 45 minutes at 4° C. (ultracentrifuge Ti90 rotor). The supernatant was removed and the pellet resuspended in HEDG buffer (20 mM HEPES (pH 7.67), 1 mM EGTA, 0.5 mM dithiothreithol, 100 mM NaCl, 10% glycerol, 1 mM PMSF). Three volumes of buffer were then added and the pellet was resuspended and centrifuged again at 1000 rpm for 2 minutes. The supernatant was removed and stored on ice. The procedure was repeated adding the second supernatant to the first and then the procedure was repeated 2-3 more times. The protein concentration was determined using the Bio-Rad protein assay. All fractions were stored at −80° C.
as §1

| Substance | effect of biotin tag at amino or carboxyl end on binding affinities |
| --- | --- |
| LETTCASLCYPS (polypeptide ligand) [SEQ ID NO:8] | No differences |

Same assay, conditions: ELISA; intestinal epithelial tissue, FIGS. 17A-17B Caco-2 homogenates

| Substance | binder category / binding to epithelium |
| --- | --- |
| LETTAASLAYPS (polypeptide ligand) [SEQ ID NO:33] | binding to the epithelium is abrogated |
| LETTAASLCYPS [SEQ ID NO:31] | binding is still retained |
| LETTCASLAYPS [SEQ ID NO:32] | binding is still retained |
| LETTCASLCYPS (polypeptide ligand) [SEQ ID NO:8] | medium binder |
| NTRIPEPIRFYM (polypeptide ligand) [SEQ ID NO:14] | low to medium binder |
| VCSNMYFSCRLS (polypeptide ligand) [SEQ ID NO:24] | medium binder |
| VPPHPMTYSAQY (polypeptide ligand) [SEQ ID NO:38] | binding to the epithelium is abrogated |
| VPPHPMTYSCQY (polypeptide ligand) [SEQ ID NO:25] | highest binder |
| vpphpmtyscqy ([dV][dP][dP][dH][dP][dM][dT][dY][dS][dC][dQ][dY]) [SEQ ID NO:37] | retained high binding |

Same assay, conditions: Tables 9 and 10

| Substance | Binding Assay results (Caco-2), category | Binding Assay results (Caco-2), Kd |
| --- | --- | --- |
| LETTAASLAYPS (polypeptide ligand) [SEQ ID NO:33] | No binding |  |
| LETTAASLCYPS [SEQ ID NO:31] | Medium binder | (Kd˜9 μg/ml) |
| LETTCASLAYPS [SEQ ID NO:32] | Medium binder | (Kd˜8 μg/ml) |
| LETTCASLCYPS (polypeptide ligand) [SEQ ID NO:8] | Medium binder |  |
| LETTCASLCYPS [8 biotinylated derivative] | Medium binder | (Kd˜8 μg/ml) |
| LETTCASLCYPS [8 dansyl-lysine derivative] | High binder | (Kd˜1 μg/ml) |
| LETTSASLSYPS (polypeptide ligand) [SEQ ID NO:34] | No binding |  |
| VPPHPMTYSAQY (polypeptide ligand) [SEQ ID NO:38] | No binding |  |
| VPPHPMTYSCQY [25 Dansyl-lysine derivative] |  | (Kd < 1 μg/ml) |
| VPPHPMTYSCQY [25 biotinylated derivative] | High binder | (Kd < 5 μg/ml) |
| VPPHPMTYSSQY (polypeptide ligand) [SEQ ID NO:39] | No binding |  |
| lettcaslcyps ([dL][dE][dT][dT][dC][dA][dS][dL][dC][dY][dP][dS]; cysteine pairing not given here) [SEQ ID NO:36] |  | (Kd˜30.53 μg/ml) |
| spyclsacttel ([dS][dP][dY][dC][dL][dS][dA][dC][dT][dT][dE][dL]; cysteine pairing not given here) [SEQ ID NO:35] | Medium binder | (Kd˜13.91 μg/ml) |
| vpphpmtyscqy ([dV][dP][dP][dH][dP][dM][dT][dY][dS][dC][dQ][dY]) [SEQ ID NO:37] |  | (Kd˜10 μg/ml) |

Same assay, conditions: biotin-tagged peptides; Example 5

| Substance | peptide binding |
| --- | --- |
| DYDSLSWRSTLH (polypeptide ligand) [SEQ ID NO:3] | High binding |
| LETTCASLCYPS (polypeptide ligand) [SEQ ID NO:8] | High binding |
| VCSNMYFSCRLS (polypeptide ligand) [SEQ ID NO:24] | High binding |
| VPPHPMTYSCQY (polypeptide ligand) [SEQ ID NO:25] | High binding |

Same assay, conditions: compared with SEQ ID NO:3

| Substance | effect of added Zinc-binding motif (HESSH) on binding |
| --- | --- |
| DYDSLSWRSTLHGGHESSH (polypeptide ligand) [SEQ ID NO:43] | Enhanced binding |

System: intestinal tissue of different species namely dog, mouse, pig, and rat
Assay: Peptide binding to intestinal tissue of different species
Conditions: biotin-tagged peptides
Method: as §2

| Substance | differences in binding profiles to tissue of different species |
| --- | --- |
| DYDSLSWRSTLH (polypeptide ligand) [SEQ ID NO:3] | No major differences |
| KPAYTHEYRWLA (polypeptide ligand) [SEQ ID NO:7] | No major differences |
| LETTCASLCYPS (polypeptide ligand) [SEQ ID NO:8] | No major differences |
| LGTDWHSVSYTL (polypeptide ligand) [SEQ ID NO:9] | No major differences |
| NTRIPEPIRFYM (polypeptide ligand) [SEQ ID NO:14] | No major differences |

Source: patent publication US6916789B2, “Peyer's patch and/or M-cell targeting ligands” (Merrion Research I Limited, priority 2001, dated 2005)
